# Experiments:
# Assay type in all cases: in vivo
# [1] = system: commercial corn hybrids; test: Hybrid seed production (breeding station) field trial: final stand count and plot yield of corn from imidacloprid-treated seed; settings: for Stand count, Imidacloprid treated / Corn yield, Imidacloprid treated: 0.165 mg/kernel + fungicide; for Stand count, Imidacloprid treated: V5 stage; for Corn yield, Imidacloprid treated: at maturity, 15% moisture; for Corn yield, Difference / Stand count, Difference: imidacloprid treated vs fungicide-only control; for Actual Yield Over Expected: yield increase vs that expected from stand improvement (about 1% per 1,000 plants/ac); for Actual Yield Over 2× of Expected: yield increase vs two-times that predicted from stand improvement
# [2] = system: corn hybrids; test: Field strip trials of corn yield under different tillage regimes: soil insecticide alone or plus Gaucho seed treatment
# Description: Seed of three corn hybrids were treated with imidacloprid in the manner described in Example 3. Seed were planted using standard planting equipment in field experiments across the U.S. corn belt. All experiments were conducted as strip trials, under a variety of tillage regimes, and all trials received standard weed control and cultural practices common to commercial corn production. Plot yield was collected using standard mechanical harvesting equipment.
# Soil insecticides were applied in the manner described in Example 2. Considerable increase in corn yield was also observed when corn seed treated with imidacloprid were planted in soils treated with soil-applied insecticide. The increase in yield was observed under all tillage conditions and for all the hybrids tested. Table 7 compares the yield from untreated corn seeds and corn seeds treated with imidacloprid when planted on soil treated with soil-applied insecticide. […] Soil-applied insecticides are known to be an effective method for controlling secondary insects, so the increase in corn yield was surprising.
# No-Till-Tillage system refers to situations where no tillage methods are applied to the soil prior to or at planting.
# Conservation/Minimum tillage refers to reduced tillage practices allowing at least 30% of soil surface to remain covered with crop residue.
# Conventional Tillage refers to tillage practices where less than 30% of soil surface is covered with previous crop residue.
# Such practices may include moldboard plowing, disking, or multiple field cultivation passes prior to or at planting of crop. Strip and Ridge-Till, although usually grouped in conservation tillage because of beneficial effects on soil and water retention, are grouped in conventional tillage here because the tilled zones in which the crop is planted provide an environment more similar to true conventional tillage.
# [3] = system: isoline (non-transgenic) corn hybrids RX670 and RX601; test: Field tests of corn yield of isoline hybrids at low pest pressure, with and without imidacloprid seed treatment; settings: 60 gm per 100 kg of seed; four location/hybrid cases
# Description: (§1) Corn hybrids with and without transgenic events expressing insecticidal proteins were evaluated for field efficacy. The hybrids that were evaluated were RX670 and RX601, each as an isoline (having no transgenic events) and each having a transgenic event expressing the Cry3Bb protein having activity against Diabrotica spp. (corn rootworm)—designated as MON853, or a transgenic event expressing the Cry3Bb protein having activity against corn rootworm—designated as MON863, or a combination of MON853 and a transgenic event expressing the Cry1A protein having activity against European corn borer—designated as MON810, or a combination of MON863 and MON810. Accordingly, an isoline and four transgenic forms were tested for each hybrid. Each type of seed was tested with and without seed treatment with 60 gm of imidacloprid per 100 kg of seed, applied in a Niklas seed treater. The isoline seeds were also tested with and without the use of conventional soil-applied insecticides, which were applied as described in Example 3.
# [4] = system: corn hybrids RX670 and RX601 having transgenic events MON853, MON863, MON810; test: Field trials of corn yield of transgenic seed at low pest pressure, with and without imidacloprid seed treatment; settings: 60 gm per 100 kg of seed; all trials; relative absence of insect pressure
# Description: as §1
# [5] = system: corn rootworm; secondary insect pests of corn; test: Insect protection of corn by imidacloprid seed treatment at 0.165 mg/kernel (stated as previously shown); settings: 0.165 mg imidacloprid/kernel
# [6] = hybrid B = DKC46-26, 10 locations
# [7] = hybrid D = DKC51-88, 10 locations
# [8] = hybrid F = LH244XLH295, 10 locations
# [9] = hybrid H = HC33XLH277, 14 locations
# [10] = hybrid I = DKC57-38, 14 locations
# [11] = vs fungicide-treated control, 12 hybrids
smiles,measurement,setting,value
"O=[N+]([O-])NC1=NCCN1Cc1ccc(Cl)nc1 [Imidacloprid, imidacloprid]","Stand count, Imidacloprid treated","[1]; hybrid A = DK440, 10 locations",31920 plts/ac
same,"Corn yield, Imidacloprid treated","[1]; hybrid A = DK440, 10 locations",163.5 bu/ac
same,"Stand count, Imidacloprid treated",[1]; [6],32061 plts/ac
same,"Corn yield, Imidacloprid treated",[1]; [6],170.8 bu/ac
same,"Stand count, Imidacloprid treated","[1]; hybrid C = DK493, 10 locations",31217 plts/ac
same,"Corn yield, Imidacloprid treated","[1]; hybrid C = DK493, 10 locations",159.6 bu/ac
same,"Stand count, Imidacloprid treated",[1]; [7],31828 plts/ac
same,"Corn yield, Imidacloprid treated",[1]; [7],169.4 bu/ac
same,"Stand count, Imidacloprid treated","[1]; hybrid E = DK537, 10 locations",32011 plts/ac
same,"Corn yield, Imidacloprid treated","[1]; hybrid E = DK537, 10 locations",171.2 bu/ac
same,"Stand count, Imidacloprid treated",[1]; [8],30786 plts/ac
same,"Corn yield, Imidacloprid treated",[1]; [8],173.1 bu/ac
same,"Stand count, Imidacloprid treated","[1]; hybrid G = DK567, 14 locations",28766 plts/ac
same,"Corn yield, Imidacloprid treated","[1]; hybrid G = DK567, 14 locations",167.5 bu/ac
same,"Stand count, Imidacloprid treated",[1]; [9],28004 plts/ac
same,"Corn yield, Imidacloprid treated",[1]; [9],164.6 bu/ac
same,"Stand count, Imidacloprid treated",[1]; [10],28460 plts/ac
same,"Corn yield, Imidacloprid treated",[1]; [10],172.3 bu/ac
same,"Stand count, Imidacloprid treated","[1]; hybrid J = DK585, 14 locations",28273 plts/ac
same,"Corn yield, Imidacloprid treated","[1]; hybrid J = DK585, 14 locations",179.5 bu/ac
same,"Stand count, Imidacloprid treated","[1]; hybrid K = DK611, 14 locations",28984 plts/ac
same,"Corn yield, Imidacloprid treated","[1]; hybrid K = DK611, 14 locations",171.3 bu/ac
same,"Stand count, Imidacloprid treated","[1]; hybrid L = RX708, 14 locations",28986 plts/ac
same,"Corn yield, Imidacloprid treated","[1]; hybrid L = RX708, 14 locations",180.7 bu/ac
same,"Corn yield, Difference","[1]; hybrid A = DK440, 10 locations",2.0 bu/ac
same,"Stand count, Difference","[1]; hybrid A = DK440, 10 locations",843.8 plts/ac
same,"Corn yield, Difference",[1]; [6],4.1 bu/ac
same,"Stand count, Difference",[1]; [6],439.0 plts/ac
same,"Corn yield, Difference","[1]; hybrid C = DK493, 10 locations",5.8 bu/ac
same,"Stand count, Difference","[1]; hybrid C = DK493, 10 locations",749.5 plts/ac
same,"Corn yield, Difference",[1]; [7],−0.7 bu/ac
same,"Stand count, Difference",[1]; [7],946.8 plts/ac
same,"Corn yield, Difference","[1]; hybrid E = DK537, 10 locations",1.0 bu/ac
same,"Stand count, Difference","[1]; hybrid E = DK537, 10 locations",620.0 plts/ac
same,"Corn yield, Difference",[1]; [8],4.7 bu/ac
same,"Stand count, Difference",[1]; [8],1162.3 plts/ac
same,"Corn yield, Difference","[1]; hybrid G = DK567, 14 locations",3.5 bu/ac
same,"Stand count, Difference","[1]; hybrid G = DK567, 14 locations",1189.2 plts/ac
same,"Corn yield, Difference",[1]; [9],4.8 bu/ac
same,"Stand count, Difference",[1]; [9],39.6 plts/ac
same,"Corn yield, Difference",[1]; [10],9.2 bu/ac
same,"Stand count, Difference",[1]; [10],1822.2 plts/ac
same,"Corn yield, Difference","[1]; hybrid J = DK585, 14 locations",3.7 bu/ac
same,"Stand count, Difference","[1]; hybrid J = DK585, 14 locations",429.3 plts/ac
same,"Corn yield, Difference","[1]; hybrid K = DK611, 14 locations",0.1 bu/ac
same,"Stand count, Difference","[1]; hybrid K = DK611, 14 locations",1022.8 plts/ac
same,"Corn yield, Difference","[1]; hybrid L = RX708, 14 locations",6.9 bu/ac
same,"Stand count, Difference","[1]; hybrid L = RX708, 14 locations",803.7 plts/ac
same,"increase or decrease in corn yield vs untreated seeds (FIG. 2 by hybrid, FIG. 3 by location)","[1]; twelve hybrids, twenty four locations",consistent and commercially important increases in corn yield
same,hybrid/seed treatment combinations with yield increase more than expected on the basis of stand improvement alone,[1]; [11],9 out of 12
same,hybrid/seed treatment combinations with yield increase over two-times that predicted on the basis of stand improvement,[1]; [11],7 out of 12
same,Actual Yield Over Expected,[1]; hybrid A = DK440,Yes
same,Actual Yield Over Expected,[1]; hybrid B = DKC46-26,Yes
same,Actual Yield Over Expected,[1]; hybrid C = DK493,Yes
same,Actual Yield Over Expected,[1]; hybrid D = DKC51-88,No
same,Actual Yield Over Expected,[1]; hybrid E = DK537,No
same,Actual Yield Over Expected,[1]; hybrid F = LH244XLH295,Yes
same,Actual Yield Over Expected,[1]; hybrid G = DK567,Yes
same,Actual Yield Over Expected,[1]; hybrid H = HC33XLH277,Yes
same,Actual Yield Over Expected,[1]; hybrid I = DKC57-38,Yes
same,Actual Yield Over Expected,[1]; hybrid J = DK585,Yes
same,Actual Yield Over Expected,[1]; hybrid K = DK611,No
same,Actual Yield Over Expected,[1]; hybrid L = RX708,Yes
same,Actual Yield Over 2× of Expected,[1]; hybrid A = DK440,No
same,Actual Yield Over 2× of Expected,[1]; hybrid B = DKC46-26,Yes
same,Actual Yield Over 2× of Expected,[1]; hybrid C = DK493,Yes
same,Actual Yield Over 2× of Expected,[1]; hybrid D = DKC51-88,No
same,Actual Yield Over 2× of Expected,[1]; hybrid E = DK537,No
same,Actual Yield Over 2× of Expected,[1]; hybrid F = LH244XLH295,Yes
same,Actual Yield Over 2× of Expected,[1]; hybrid G = DK567,No
same,Actual Yield Over 2× of Expected,[1]; hybrid H = HC33XLH277,Yes
same,Actual Yield Over 2× of Expected,[1]; hybrid I = DKC57-38,Yes
same,Actual Yield Over 2× of Expected,[1]; hybrid J = DK585,Yes
same,Actual Yield Over 2× of Expected,[1]; hybrid K = DK611,No
same,Actual Yield Over 2× of Expected,[1]; hybrid L = RX708,Yes
same,increase in corn yield,[2]; conservation/minimum tillage,1.6%
same,increase in corn yield,[2]; convention tillage,1.7%
same,increase in corn yield,[2]; no-till cultivation,6.3%
same,corn yield vs seeds without imidacloprid treatment,"[2]; planted on soil treated with soil-applied insecticide, all tillage conditions and hybrids",considerably higher yield
same,effect of imidacloprid treatment on yield for isoline corn,[3],increased by imidacloprid treatment in one-half of the cases tested
same,corn yield of transgenic seed treated with imidacloprid vs isolines and untreated transgenic strains,[4],"higher than the isolines, and also higher than the untreated transgenic strains"
same,protection of corn seedlings against stand reducing and growth limiting secondary insect pests,[5],effective
same,reduction of root injury by corn rootworm,[5]; locations with economically damaging levels of corn rootworm,not significantly reduce root injury

# Source: patent US20040023802A1, “Increasing plant yield and/or vigor by seed treatment with a neonicotinoid compound” (Monsanto Technology, L.L.C., priority 2002, published 2004)
